Results: US10793563B2, “GCN2 inhibitors and uses thereof” (Merck Patent GmbH, priority 2018, dated 2020)

target: GCN2 kinase (Homo sapiens (Human), UniProt Q9P2K8); assay: GCN2 Enzyme Inhibition Assay (Transcreener ADP2 fluorescence polarization); assay type: biochemical; details: 280 μM ATP, 200 μM (RS)7 peptide, 4 nM GCN2, 25° C.
Outline: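 At 25 °C, GCN2 kinase (typical final concentration 4 nM) and (RS)7 peptide in Tris-HCl pH 7.5 buffer with MgCl2, NaCl and DTT were preincubated with compound for 10 min, then ATP was added for a 1 h reaction. ADP was read by FP with antibody/Alexa633 tracer. Non-linear tight-binding analysis gave IC50 and apparent Ki.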

Sequence of GCN2 kinase (Q9P2K8 whole entry): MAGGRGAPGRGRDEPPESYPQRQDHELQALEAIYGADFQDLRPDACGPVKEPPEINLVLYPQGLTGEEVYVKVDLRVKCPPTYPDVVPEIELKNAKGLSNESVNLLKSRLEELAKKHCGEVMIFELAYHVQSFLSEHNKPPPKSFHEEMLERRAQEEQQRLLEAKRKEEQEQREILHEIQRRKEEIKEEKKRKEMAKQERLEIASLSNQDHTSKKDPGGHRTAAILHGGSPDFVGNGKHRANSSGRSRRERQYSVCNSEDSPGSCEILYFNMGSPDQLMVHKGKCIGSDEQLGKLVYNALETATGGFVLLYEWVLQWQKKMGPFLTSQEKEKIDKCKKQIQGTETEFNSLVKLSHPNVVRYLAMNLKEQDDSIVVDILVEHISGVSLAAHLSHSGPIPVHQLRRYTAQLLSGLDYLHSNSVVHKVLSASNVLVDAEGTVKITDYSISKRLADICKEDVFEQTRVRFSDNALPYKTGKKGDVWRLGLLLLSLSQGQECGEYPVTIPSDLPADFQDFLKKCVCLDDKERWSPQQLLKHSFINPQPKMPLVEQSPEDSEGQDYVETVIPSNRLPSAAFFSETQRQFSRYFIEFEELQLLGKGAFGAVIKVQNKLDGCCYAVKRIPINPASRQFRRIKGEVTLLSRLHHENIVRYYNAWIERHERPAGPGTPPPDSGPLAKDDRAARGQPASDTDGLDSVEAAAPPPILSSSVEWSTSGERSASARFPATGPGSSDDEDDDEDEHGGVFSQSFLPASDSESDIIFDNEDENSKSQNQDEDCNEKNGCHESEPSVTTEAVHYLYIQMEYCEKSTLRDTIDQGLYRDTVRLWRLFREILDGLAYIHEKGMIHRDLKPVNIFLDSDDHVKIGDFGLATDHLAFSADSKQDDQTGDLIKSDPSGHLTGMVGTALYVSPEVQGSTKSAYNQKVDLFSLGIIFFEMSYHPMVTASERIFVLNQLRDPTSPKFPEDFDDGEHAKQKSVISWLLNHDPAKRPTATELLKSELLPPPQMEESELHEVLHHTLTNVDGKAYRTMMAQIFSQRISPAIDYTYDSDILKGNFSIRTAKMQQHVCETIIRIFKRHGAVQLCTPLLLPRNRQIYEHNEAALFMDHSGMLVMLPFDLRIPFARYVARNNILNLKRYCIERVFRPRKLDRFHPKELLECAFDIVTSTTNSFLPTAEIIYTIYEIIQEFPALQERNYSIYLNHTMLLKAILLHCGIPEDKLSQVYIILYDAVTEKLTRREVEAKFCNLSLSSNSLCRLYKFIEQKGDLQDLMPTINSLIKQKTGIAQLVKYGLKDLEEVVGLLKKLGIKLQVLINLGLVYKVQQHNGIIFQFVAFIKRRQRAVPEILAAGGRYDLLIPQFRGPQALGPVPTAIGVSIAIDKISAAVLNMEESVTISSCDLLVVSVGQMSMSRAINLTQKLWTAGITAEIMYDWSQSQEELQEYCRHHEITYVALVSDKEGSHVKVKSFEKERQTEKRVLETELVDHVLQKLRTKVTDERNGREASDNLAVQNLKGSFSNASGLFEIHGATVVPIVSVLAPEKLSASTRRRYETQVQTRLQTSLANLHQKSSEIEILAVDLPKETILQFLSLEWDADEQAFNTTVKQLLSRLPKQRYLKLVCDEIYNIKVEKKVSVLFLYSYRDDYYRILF

Compound	IC50 [nM]
COCCN1CCN(c2ccnc(-c3cnc4ccc(C(F)(F)F)cn34)n2)CC1C(N)=O (stereo not drawn) [I-258, 1-(2-methoxyethyl)-4-(2-(6-(trifluoromethyl)imidazo[1,2-a]pyridin-3-yl)pyrimidin-4-yl)piperazine-2-carboxamide]	10 to 100
COCCN1C(C)CN(c2ccnc(-c3cnc4ccc(C(F)(F)F)cn34)n2)CC1C (stereo not drawn) [I-335, 3-(4-(4-(2-methoxyethyl)-3,5-dimethylpiperazin-1-yl)pyrimidin-2-yl)-6-(trifluoromethyl)imidazo[1,2-a]pyridine]	100 to 1000
Cc1nn(C)cc1[C@H]1C[C@@H](C)CN(c2nccc(-c3cnc4ccc(C(F)(F)F)cn34)n2)C1 [I-142, 3-(2-((3R,5R)-3-(1,3-dimethyl-1H-pyrazol-4-yl)-5-methylpiperidin-1-yl)pyrimidin-4-yl)-6-(trifluoromethyl)imidazo[1,2-a]pyridine]	100 to 1000
FC(F)(F)c1ccc2ncc(-c3nccc(N4CCN(CC5CC56CC6)C(c5cn[nH]c5)C4)n3)n2c1 (stereo not drawn) [I-475, 3-(4-(3-(1H-pyrazol-4-yl)-4-(spiro[2.2]pentan-1-ylmethyl)piperazin-1-yl)pyrimidin-2-yl)-6-(trifluoromethyl)imidazo[1,2-a]pyridine]	10 to 100
O=C1CCC[C@@H](C(=O)N2CCN(c3ccnc(-c4cnc5ccc(C(F)(F)F)cn45)n3)C[C@@H]2c2cn[nH]c2)N1 [I-474, (S)-6-((S)-2-(1H-pyrazol-4-yl)-4-(2-(6-(trifluoromethyl)imidazo[1,2-a]pyridin-3-yl)pyrimidin-4-yl)piperazine-1-carbonyl)piperidin-2-one]	100 to 1000
NC(=O)CC1CCCN(c2ccnc(-c3cnc4ccc(C(F)(F)F)cn34)n2)C1 (stereo not drawn) [I-166, 2-(1-(2-(6-(trifluoromethyl)imidazo[1,2-a]pyridin-3-yl)pyrimidin-4-yl)piperidin-3-yl)acetamide]	10 to 100
NC(=O)C1CC12CCCN(c1ccnc(-c3cnc4ccc(Cl)cn34)n1)C2 (stereo not drawn) [I-132, 5-(2-(6-chloroimidazo[1,2-a]pyridin-3-yl)pyrimidin-4-yl)-5-azaspiro[2.5]octane-1-carboxamide]	10 to 100
CC1CN(c2ccnc(-c3cnc4ccc(C(F)(F)F)cn34)n2)CC(C)N1C1COC1 (stereo not drawn) [I-234, 3-(4-(3,5-dimethyl-4-(oxetan-3-yl)piperazin-1-yl)pyrimidin-2-yl)-6-(trifluoromethyl)imidazo[1,2-a]pyridine]	10 to 100
Cc1oncc1C(=O)N1CCN(c2ccnc(-c3cnc4ccc(C(F)(F)F)cn34)n2)CC1c1cn[nH]c1 (stereo not drawn) [I-515, (2-(1H-pyrazol-4-yl)-4-(2-(6-(trifluoromethyl)imidazo[1,2-a]pyridin-3-yl)pyrimidin-4-yl)piperazin-1-yl)(5-methylisoxazol-4-yl)methanone]	100 to 1000
CC(O)C(=O)N[C@H]1C[C@H](O)CN(c2ccnc(-c3cnc4ccc(C(F)(F)F)cn34)n2)C1 (stereo partly drawn) [I-254, 2-hydroxy-N-((3S,5S)-5-hydroxy-1-(2-(6-(trifluoromethyl)imidazo[1,2-a]pyridin-3-yl)pyrimidin-4-yl)piperidin-3-yl)propanamide]	100 to 1000
COC(=O)C1CC12CCCN(c1ccnc(-c3cnc4ccc(Cl)cn34)n1)C2 (stereo not drawn) [I-133, methyl 5-(2-(6-chloroimidazo[1,2-a]pyridin-3-yl)pyrimidin-4-yl)-5-azaspiro[2.5]octane-1-carboxylate]	100 to 1000

The remaining lines, values ahead:

IC50 [nM]	Compound
100 to 1000	C[C@@H]1CN(c2ccnc(-c3cnc4ccc(C(F)(F)F)cn34)n2)C[C@H](C)N1CC(F)(F)F [I-410, 3-(4-(cis-3,5-dimethyl-4-(2,2,2-trifluoroethyl)piperazin-1-yl)pyrimidin-2-yl)-6-(trifluoromethyl)imidazo[1,2-a]pyridine]
10 to 100	C[C@@H]1CN(c2ccnc(-c3cnc4ccc(C(F)(F)F)cn34)n2)C[C@H](C)N1C(=O)C1CC1(F)F (stereo partly drawn) [I-438, (2,2-difluorocyclopropyl)(cis-2,6-dimethyl-4-(2-(6-(trifluoromethyl)imidazo[1,2-a]pyridin-3-yl)pyrimidin-4-yl)piperazin-1-yl)methanone]
10 to 100	NC(=O)[C@@H]1CCCN(c2ccnc(-c3cnc4ccc(Cl)cn34)n2)C1 [I-164, (R)-1-(2-(6-chloroimidazo[1,2-a]pyridin-3-yl)pyrimidin-4-yl)piperidine-3-carboxamide]
< 10	CC1C(C(N)=O)NCCN1c1ccnc(-c2cnc3ccc(C(F)(F)F)cn23)n1 (stereo not drawn) [I-380, 3-methyl-4-{2-[6-(trifluoromethyl)imidazo[1,2-a]pyridin-3-yl]pyrimidin-4-yl}piperazine-2-carboxamide]
100 to 1000	Cc1nnc(C)n1[C@H]1C[C@H](C)CN(c2nccc(-c3cnc4ccc(C(F)(F)F)cn34)n2)C1 [I-465, 3-(2-((3S,5S)-3-(3,5-dimethyl-4H-1,2,4-triazol-4-yl)-5-methylpiperidin-1-yl)pyrimidin-4-yl)-6-(trifluoromethyl)imidazo[1,2-a]pyridine]
100 to 1000	CS(=O)(=O)NCC1NCCN(c2ccnc(-c3cnc4ccc(C(F)F)cn34)n2)C1C(F)(F)F (stereo not drawn) [I-496, N-((4-(2-(6-(difluoromethyl)imidazo[1,2-a]pyridin-3-yl)pyrimidin-4-yl)-3-(trifluoromethyl)piperazin-2-yl)methyl)methanesulfonamide]
100 to 1000	CC(C)(C)OC(=O)C1(O)CCCN(c2ccnc(-c3cnc4ccc(C(F)(F)F)cn34)n2)C1 (stereo not drawn) [I-212, tert-butyl 3-hydroxy-1-(2-(6-(trifluoromethyl)imidazo[1,2-a]pyridin-3-yl)pyrimidin-4-yl)piperidine-3-carboxylate]
100 to 1000	Cc1oncc1C(=O)N1CCN(c2ccnc(-c3cnc4ccc(C(F)(F)F)cn34)n2)C[C@@H]1c1cn[nH]c1 [I-549, (S)-(2-(1H-pyrazol-4-yl)-4-(2-(6-(trifluoromethyl)imidazo[1,2-a]pyridin-3-yl)pyrimidin-4-yl)piperazin-1-yl)(5-methylisoxazol-4-yl)methanone]
100 to 1000	Cc1noc(C2CN(c3ccnc(-c4cnc5ccc(C(F)(F)F)cn45)n3)CCN2C)n1 (stereo not drawn) [I-332, 3-methyl-5-(1-methyl-4-(2-(6-(trifluoromethyl)imidazo[1,2-a]pyridin-3-yl)pyrimidin-4-yl)piperazin-2-yl)-1,2,4-oxadiazole]
10 to 100	O=C([C@H]1C[C@H]1F)N1CCN(c2ccnc(-c3cnc4ccc(C(F)(F)F)cn34)n2)CC1c1cn[nH]c1 (stereo in doubt) [I-485, (2-(1H-pyrazol-4-yl)-4-(2-(6-(trifluoromethyl)imidazo[1,2-a]pyridin-3-yl)pyrimidin-4-yl)piperazin-1-yl)((1R,2R)-2-fluorocyclopropyl)methanone]
100 to 1000	NC(=O)C1CN(c2ccnc(-c3cnc4ccc(C(F)(F)F)cn34)n2)C1 [I-228, 1-(2-(6-(trifluoromethyl)imidazo[1,2-a]pyridin-3-yl)pyrimidin-4-yl)azetidine-3-carboxamide]
100 to 1000	C[C@@H]1CN(c2nccc(-c3cnc4ccc(C(F)(F)F)cn34)n2)C[C@H](c2nn[nH]n2)O1 [I-190, (2R,6R)-2-methyl-6-(2H-tetrazol-5-yl)-4-(4-(6-(trifluoromethyl)imidazo[1,2-a]pyridin-3-yl)pyrimidin-2-yl)morpholine]
100 to 1000	C[C@@H]1CN(c2ccnc(-c3cnc4ccc(C(F)(F)F)cn34)n2)C[C@H](C)N1S(C)(=O)=O [I-439, 3-(4-(cis-3,5-dimethyl-4-(methylsulfonyl)piperazin-1-yl)pyrimidin-2-yl)-6-(trifluoromethyl)imidazo[1,2-a]pyridine]
100 to 1000	NC(=O)[C@H]1CN(c2ccnc(-c3cnc4cc(F)c(Cl)cn34)n2)CCN1C1CC1 [I-425, (R)-4-(2-(6-chloro-7-fluoroimidazo[1,2-a]pyridin-3-yl)pyrimidin-4-yl)-1-cyclopropylpiperazine-2-carboxamide]
100 to 1000	CC1(C)CN(c2ccnc(-c3cnc4ccc(C(F)(F)F)cn34)n2)CCN1 [I-334, 3-(4-(3,3-dimethylpiperazin-1-yl)pyrimidin-2-yl)-6-(trifluoromethyl)imidazo[1,2-a]pyridine]
100 to 1000	CC1CN(c2ccnc(-c3cnc4ccc(C(F)(F)F)cn34)n2)CC(C)N1 (stereo not drawn) [I-231, 3-(4-(3,5-dimethylpiperazin-1-yl)pyrimidin-2-yl)-6-(trifluoromethyl)imidazo[1,2-a]pyridine]

same assay, conditions: Ki(app); 280 μM ATP, 200 μM (RS)7 peptide, 4 nM GCN2, 25° C.

Compound	Ki [nM]
Clc1ccc2ncc(-c3nccc(N4CCCC(c5cn[nH]c5)C4)n3)n2c1 (stereo not drawn) [I-100, 2-{6-chloroimidazo[1,2-a]pyridin-3-yl}-4-[3-(1H-pyrazol-4-yl)piperidin-1-yl]pyrimidine]	< 10
Cc1nnc([C@@H]2CN(c3ccnc(-c4cnc5ccc(C#N)cn45)n3)C[C@H](C)O2)o1 (relative stereo) [I-94, 3-{4-[cis-2-methyl-6-(5-methyl-1,3,4-oxadiazol-2-yl)morpholin-4-yl]pyrimidin-2-yl}imidazo[1,2-a]pyridine-6-carbonitrile]	100 to 1000

The remaining lines, values ahead:

Ki [nM]	Compound
< 10	CC1C(C(N)=O)NCCN1c1ccnc(-c2cnc3ccc(C(F)(F)F)cn23)n1 (stereo not drawn) [I-380, 3-methyl-4-{2-[6-(trifluoromethyl)imidazo[1,2-a]pyridin-3-yl]pyrimidin-4-yl}piperazine-2-carboxamide]
10 to 100	Cc1nnc([C@@H]2CN(c3ccnc(-c4cnc5ccc(C(F)(F)F)cn45)n3)C[C@H](C)O2)o1 (relative stereo) [I-93, cis-2-methyl-6-(5-methyl-1,3,4-oxadiazol-2-yl)-4-{2-[6-(trifluoromethyl)imidazo[1,2-a]pyridin-3-yl]pyrimidin-4-yl}morpholine]
10 to 100	O=C1OCC2CN(c3ccnc(-c4cnc5ccc(Cl)cn45)n3)CCN12 (stereo not drawn) [I-99, 7-(2-{6-chloroimidazo[1,2-a]pyridin-3-yl}pyrimidin-4-yl)-hexahydro-1H-[1,3]oxazolo[3,4-a]pyrazin-3-one]
10 to 100	Cc1noc([C@@H]2CN(c3ccnc(-c4cnc5ccc(C(F)(F)F)cn45)n3)C[C@H](C)O2)n1 (stereo in doubt) [I-89, 2-methyl-6-(3-methyl-1,2,4-oxadiazol-5-yl)-4-{2-[6-(trifluoromethyl)imidazo[1,2-a]pyridin-3-yl]pyrimidin-4-yl}morpholine]
